# Where two headings read alike, the source gives them in different places.
# Tested on: HIV-1 (H9IIIB or NL4-3 virus) replication in MT4-GFP cells
# Assay: microbe, parasite or virus in culture
# Format: cell-based
# Settings: inhibition of reproductive ratio R0, 48-72 h post-infection
# [1] = MT4-GFP cells infected with HIV-1, 100% normal human serum, read-out: ViKinG IP (nM) with 100% NHS
# [2] = MT4-GFP cells infected with HIV-1, serum free conditions (0% NHS), read-out: ViKinG IP (nM) with 0% NHS
# [3] = Human immunodeficiency virus 1, NL43, MT4-GFP cells infected with HIV-1, 100% normal human serum, read-out: ViKinG IP (nM) with 100% NHS
# [4] = Human immunodeficiency virus 1, NL43, MT4-GFP cells infected with HIV-1, serum free conditions (0% NHS), read-out: ViKinG IP (nM) with 0% NHS
SMILES,IC50 [1],IC50 [2],"IC50 (Human immunodeficiency virus 1, NL43, MT4-GFP cells infected with HIV-1, 10% normal human serum, read-out: ViKinG IP (nM) with 10% NHS)",IC50 [3],IC50 [4]
"CCN1C(=O)c2c(O)c(=O)c(C(=O)NCc3ccc(F)cc3F)cn2N(C)C12CCNC2 (single isomer, unassigned) [Compound 172]",61 nM,1.6 nM,,,
"COCCN1C(=O)c2c(O)c(=O)c(C(=O)NCc3ccc(F)cc3F)cn2N(C)C12CCOC2 (single isomer, unassigned) [Compound 122]",1990 nM,2.4 nM,,,
CCOCCN1C(=O)c2c(O)c(=O)c(C(=O)NCc3ccc(F)cc3F)cn2N(C)C12CCOCC2 [Compound 142],,,13 nM,171 nM,1.3 nM
"CC1OCCC12N(C)C(=O)c1c(O)c(=O)c(C(=O)NCc3cccc(Cl)c3F)cn1N2C (single isomer, unassigned) [Compound 135]",486 nM,,,,0.9 nM
"COCCN1n2cc(C(=O)NCc3ccc(F)cc3F)c(=O)c(O)c2C(=O)N(C)C12CCOC2 (single isomer, unassigned) [Compound 155]",37 nM,,,,
"CC1OCCC12N(C)C(=O)c1c(O)c(=O)c(C(=O)NCc3ccc(F)cc3F)cn1N2C (single isomer, unassigned) [Compound 131]",114 nM,,,,0.8 nM
O=C1c2c(O)c(=O)c(-c3nnc(Cc4ccc(F)cc4F)s3)cn2CC2(CCOC2)N1CCO (centres unmarked) [Compound 97],,,,1050 nM,41.7 nM
"CC1OCCC12N(C)C(=O)c1c(O)c(=O)c(C(=O)NCc3cccc(Cl)c3F)cn1N2C (single isomer, unassigned) [Compound 137]",64 nM,0.7 nM,,,
COCCCN1C(=O)c2c(O)c(=O)c(C(=O)NCc3ccc(F)cc3F)cn2N(C)C12COC2 [Compound 145],,,,174 nM,1.4 nM
"COCCCN1C(=O)c2c(O)c(=O)c(C(=O)NCc3ccc(F)cc3F)cn2CC12CCCOC2 (single isomer, unassigned) [Compound 86]",177 nM,9.3 nM,,,
"CCOP(=O)(CCN1n2cc(C(=O)NCc3ccc(F)cc3F)c(=O)c(O)c2C(=O)N(C)C12CCOC2)OCC (single isomer, unassigned) [Compound 159]",,,,71 nM,
"COCCCN1n2cc(C(=O)NCc3ccc(F)cc3F)c(=O)c(O)c2C(=O)N(C)C12CCOC2 (single isomer, unassigned) [Compound 157]",,2.5 nM,,111 nM,

# — patent publication US9707234B2, “Spirocyclic hetercycle compounds useful as HIV integrase inhibitors” (MERCK SHARP & DOHME CORP., priority 2013, dated 2017)
